These molecules were tested against T1, human PAH with the R408W mutation (Homo sapiens, UniProt P00439, R408W) (assay: Cell Based Phenylalanine Flux Assay). Conditions: A375 cells expressing human PAH R408W; 24 hrs compound incubation; 13C-Tyrosine by LC-MS; average where tested multiple times; read-out: AC50.
T1 construct: expressed in transfected cells
T1 sequence (P00439 1-452 R408W): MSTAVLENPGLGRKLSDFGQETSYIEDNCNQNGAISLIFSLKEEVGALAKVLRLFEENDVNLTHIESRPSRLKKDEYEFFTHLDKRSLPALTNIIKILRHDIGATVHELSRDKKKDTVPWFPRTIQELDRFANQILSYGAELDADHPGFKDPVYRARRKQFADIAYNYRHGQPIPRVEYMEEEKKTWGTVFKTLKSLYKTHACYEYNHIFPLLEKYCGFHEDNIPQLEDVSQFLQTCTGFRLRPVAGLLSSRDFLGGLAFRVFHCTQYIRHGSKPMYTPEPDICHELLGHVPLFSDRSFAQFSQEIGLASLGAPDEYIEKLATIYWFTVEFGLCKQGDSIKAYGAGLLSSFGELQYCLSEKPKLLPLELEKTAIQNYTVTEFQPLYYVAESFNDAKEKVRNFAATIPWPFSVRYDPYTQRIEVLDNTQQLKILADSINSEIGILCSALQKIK
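Also: after compound treatment, cells received sepiapterin plus isotope-labelled Phenylalanine for 4 hours, then labelled Tyrosine in the medium was quantified, 10-point 2-fold dilution series run in duplicate.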

**Q.** For `Fc1cccnc1-c1nnc(N2CCc3[nH]cnc3[C@H]2c2cc3c(F)cccn3n2)o1` [Example 2289, (S)-2-(4-(4-fluoropyrazolo[1,5-a]pyridin-2-yl)-1,4,6,7-tetrahydro-5H-imidazo[4,5-c]pyridin-5-yl)-5-(3-fluoropyridin-2-yl)-1,3,4-oxadiazole], which AC50 is on record?
**A.** Its AC50 is < 0.5 µM.

**Q.** With `Cc1cc(-c2nnc(C(=O)N3CCc4[nH]cnc4[C@H]3c3cc4c(C)cccn4n3)o2)n[nH]1` [Example 2291, (S)-(5-(5-methyl-1H-pyrazol-3-yl)-1,3,4-oxadiazol-2-yl)(4-(4-methylpyrazolo[1,5-a]pyridin-2-yl)-1,4,6,7-tetrahydro-5H-imidazo[4,5-c]pyridin-5-yl)methanone] as the molecule, how does the AC50 read?
**A.** Its AC50 is 1 to 5 µM.

**Q.** How did the AC50 turn out when `Cc1c[nH]nc1-c1nnc(C(=O)N2CCc3[nH]cnc3[C@H]2c2cc3c(C)cccn3n2)o1` [Example 2292, (S)-(5-(4-methyl-1H-pyrazol-3-yl)-1,3,4-oxadiazol-2-yl)(4-(4-methylpyrazolo[1,5-a]pyridin-2-yl)-1,4,6,7-tetrahydro-5H-imidazo[4,5-c]pyridin-5-yl)methanone] was run?
**A.** Its AC50 is < 0.5 µM.

**Q.** For `Cc1c[nH]nc1-c1nnc(C(=O)N2CCc3[nH]cnc3[C@@H]2c2cc3c(C)cccn3n2)o1` [Example 2293, (R)-(5-(4-methyl-1H-pyrazol-3-yl)-1,3,4-oxadiazol-2-yl)(4-(4-methylpyrazolo[1,5-a]pyridin-2-yl)-1,4,6,7-tetrahydro-5H-imidazo[4,5-c]pyridin-5-yl)methanone], which AC50 is on record?
**A.** The AC50 was > 5 µM.

**Q.** How did the AC50 turn out when `Cc1cc(-c2nnc(C(=O)N3CCc4[nH]cnc4[C@@H]3c3cc4c(F)cccn4n3)o2)n[nH]1` [Example 2294, (R)-(4-(4-fluoropyrazolo[1,5-a]pyridin-2-yl)-1,4,6,7-tetrahydro-5H-imidazo[4,5-c]pyridin-5-yl)(5-(5-methyl-1H-pyrazol-3-yl)-1,3,4-oxadiazol-2-yl)methanone] was run?
**A.** Its AC50 is > 5 µM.

**Q.** With `COc1cccn2nc([C@H]3c4nc[nH]c4CCN3c3ncccn3)cc12` [Example 2298, (R)-4-(4-methoxypyrazolo[1,5-a]pyridin-2-yl)-5-(pyrimidin-2-yl)-4,5,6,7-tetrahydro-1H-imidazo[4,5-c]pyridine] as the molecule, how does the AC50 read?
**A.** Its AC50 is 1 to 5 µM.

**Q.** With `COc1cccn2nc([C@@H]3c4nc[nH]c4CCN3c3ncccn3)cc12` [Example 2299, (S)-4-(4-methoxypyrazolo[1,5-a]pyridin-2-yl)-5-(pyrimidin-2-yl)-4,5,6,7-tetrahydro-1H-imidazo[4,5-c]pyridine] as the molecule, how does the AC50 read?
**A.** Its AC50 is < 0.5 µM.

**Q.** How did the AC50 turn out when `CC(C)c1nnc(N2CCc3[nH]cnc3[C@H]2c2cc3ccccn3n2)o1` [Example 2301, (S)-2-isopropyl-5-(4-(pyrazolo[1,5-a]pyridin-2-yl)-1,4,6,7-tetrahydro-5H-imidazo[4,5-c]pyridin-5-yl)-1,3,4-oxadiazole] was run?
**A.** Its AC50 is 0.5 to 1 µM.

**Q.** How did the AC50 turn out when `Cc1cccn2nc([C@@H]3c4nc[nH]c4CCN3c3nnc(C(C)C)o3)cc12` [Example 2303, (S)-2-isopropyl-5-(4-(4-methylpyrazolo[1,5-a]pyridin-2-yl)-1,4,6,7-tetrahydro-5H-imidazo[4,5-c]pyridin-5-yl)-1,3,4-oxadiazole] was run?
**A.** The AC50 was < 0.5 µM.

**Q.** How did the AC50 turn out when `CC(C)c1nnc(N2CCc3[nH]cnc3[C@H]2c2cc3c(C(F)(F)F)cccn3n2)o1` [Example 2305, (S)-2-isopropyl-5-(4-(4-(trifluoromethyl)pyrazolo[1,5-a]pyridin-2-yl)-1,4,6,7-tetrahydro-5H-imidazo[4,5-c]pyridin-5-yl)-1,3,4-oxadiazole] was run?
**A.** The AC50 was 0.5 to 1 µM.

**Q.** How did the AC50 turn out when `Cc1cccnc1-c1nnc(N2CCc3[nH]cnc3[C@@H]2c2cc3cccc(C)n3n2)o1` [Example 2308, (R)-2-(4-(7-methylpyrazolo[1,5-a]pyridin-2-yl)-1,4,6,7-tetrahydro-5H-imidazo[4,5-c]pyridin-5-yl)-5-(3-methylpyridin-2-yl)-1,3,4-oxadiazole] was run?
**A.** The AC50 was > 5 µM.

**Q.** `Cc1cccnc1-c1nnc(N2CCc3[nH]cnc3[C@H]2c2cc3cccc(C)n3n2)o1` [Example 2309, (S)-2-(4-(7-methylpyrazolo[1,5-a]pyridin-2-yl)-1,4,6,7-tetrahydro-5H-imidazo[4,5-c]pyridin-5-yl)-5-(3-methylpyridin-2-yl)-1,3,4-oxadiazole] was tested. Which AC50 did it give?
**A.** The AC50 was 0.5 to 1 µM.

**Q.** Which AC50 does the source give for `Cc1cccn2nc([C@@H]3c4nc[nH]c4CCN3c3ccccc3)cc12` [Example 2311, (S)-4-(4-methylpyrazolo[1,5-a]pyridin-2-yl)-5-phenyl-4,5,6,7-tetrahydro-1H-imidazo[4,5-c]pyridine] here?
**A.** The AC50 was < 0.5 µM.

**Q.** How did the AC50 turn out when `Fc1cccn2nc([C@H]3c4nc[nH]c4CCN3c3ccccc3)cc12` [Example 2312, (R)-4-(4-fluoropyrazolo[1,5-a]pyridin-2-yl)-5-phenyl-4,5,6,7-tetrahydro-1H-imidazo[4,5-c]pyridine] was run?
**A.** Its AC50 is 1 to 5 µM.

**Q.** How did the AC50 turn out when `Fc1cccn2nc([C@@H]3c4nc[nH]c4CCN3c3ccccc3)cc12` [Example 2313, (S)-4-(4-fluoropyrazolo[1,5-a]pyridin-2-yl)-5-phenyl-4,5,6,7-tetrahydro-1H-imidazo[4,5-c]pyridine] was run?
**A.** Its AC50 is < 0.5 µM.

**Q.** How did the AC50 turn out when `FC(F)(F)Oc1cccn2nc([C@@H]3c4nc[nH]c4CCN3c3nnc(C4CC4)o3)cc12` [Example 2314, (S)-2-cyclopropyl-5-(4-(4-(trifluoromethoxy)pyrazolo[1,5-a]pyridin-2-yl)-1,4,6,7-tetrahydro-5H-imidazo[4,5-c]pyridin-5-yl)-1,3,4-oxadiazole] was run?
**A.** The AC50 was < 0.5 µM.

**Q.** `FC(F)(F)Oc1cccn2nc([C@@H]3c4nc[nH]c4CCN3c3ncc(C(F)(F)F)cn3)cc12` [Example 2316, (S)-4-(4-(trifluoromethoxy)pyrazolo[1,5-a]pyridin-2-yl)-5-(5-(trifluoromethyl)pyrimidin-2-yl)-4,5,6,7-tetrahydro-1H-imidazo[4,5-c]pyridine] was tested. Which AC50 did it give?
**A.** Its AC50 is < 0.5 µM.

**Q.** `FC(F)Oc1cccn2nc([C@H]3c4nc[nH]c4CCN3c3cnccn3)cc12` [Example 2318, (R)-4-(4-(difluoromethoxy)pyrazolo[1,5-a]pyridin-2-yl)-5-(pyrazin-2-yl)-4,5,6,7-tetrahydro-1H-imidazo[4,5-c]pyridine] was tested. Which AC50 did it give?
**A.** Its AC50 is > 5 µM.

**Q.** How did the AC50 turn out when `CC(C)c1nnc(N2CCc3[nH]cnc3[C@@H]2c2cc3c(F)cccn3n2)o1` [Example 2322, (R)-2-(4-(4-fluoropyrazolo[1,5-a]pyridin-2-yl)-1,4,6,7-tetrahydro-5H-imidazo[4,5-c]pyridin-5-yl)-5-isopropyl-1,3,4-oxadiazole] was run?
**A.** Its AC50 is > 5 µM.

**Q.** With `CC(C)c1nnc(N2CCc3[nH]cnc3[C@@H]2c2cc3c(Cl)cccn3n2)o1` [Example 2324, (R)-2-(4-(4-chloropyrazolo[1,5-a]pyridin-2-yl)-1,4,6,7-tetrahydro-5H-imidazo[4,5-c]pyridin-5-yl)-5-isopropyl-1,3,4-oxadiazole] as the molecule, how does the AC50 read?
**A.** The AC50 was > 5 µM.

**Q.** How did the AC50 turn out when `CC(C)c1nnc(N2CCc3[nH]cnc3[C@H]2c2cc3c(Cl)cccn3n2)o1` [Example 2325, (S)-2-(4-(4-chloropyrazolo[1,5-a]pyridin-2-yl)-1,4,6,7-tetrahydro-5H-imidazo[4,5-c]pyridin-5-yl)-5-isopropyl-1,3,4-oxadiazole] was run?
**A.** The AC50 was < 0.5 µM.

**Q.** `CC(F)(F)c1nnc(N2CCc3[nH]cnc3[C@H]2c2cc3cccc(Cl)n3n2)o1` [Example 2327, (S)-2-(4-(7-chloropyrazolo[1,5-a]pyridin-2-yl)-1,4,6,7-tetrahydro-5H-imidazo[4,5-c]pyridin-5-yl)-5-(1,1-difluoroethyl)-1,3,4-oxadiazole] was tested. Which AC50 did it give?
**A.** Its AC50 is 1 to 5 µM.

**Q.** How did the AC50 turn out when `Cc1cccc2cc([C@@H]3c4nc[nH]c4CCN3c3nnc(C(C)(F)F)o3)nn12` [Example 2329, (S)-2-(1,1-difluoroethyl)-5-(4-(7-methylpyrazolo[1,5-a]pyridin-2-yl)-1,4,6,7-tetrahydro-5H-imidazo[4,5-c]pyridin-5-yl)-1,3,4-oxadiazole] was run?
**A.** Its AC50 is 1 to 5 µM.

**Q.** For `Cc1ncccc1-c1nnc(N2CCc3[nH]cnc3[C@@H]2c2cc3cccc(Cl)n3n2)o1` [Example 2331, (R)-2-(4-(7-chloropyrazolo[1,5-a]pyridin-2-yl)-1,4,6,7-tetrahydro-5H-imidazo[4,5-c]pyridin-5-yl)-5-(2-methylpyridin-3-yl)-1,3,4-oxadiazole], which AC50 is on record?
**A.** The AC50 was > 5 µM.

**Q.** `Cc1ncccc1-c1nnc(N2CCc3[nH]cnc3[C@H]2c2cc3cccc(C)n3n2)o1` [Example 2332, (S)-2-(4-(7-methylpyrazolo[1,5-a]pyridin-2-yl)-1,4,6,7-tetrahydro-5H-imidazo[4,5-c]pyridin-5-yl)-5-(2-methylpyridin-3-yl)-1,3,4-oxadiazole] was tested. Which AC50 did it give?
**A.** The AC50 was 0.5 to 1 µM.

**Q.** With `Cc1ncccc1-c1nnc(N2CCc3[nH]cnc3[C@@H]2c2cc3cccc(C)n3n2)o1` [Example 2333, (R)-2-(4-(7-methylpyrazolo[1,5-a]pyridin-2-yl)-1,4,6,7-tetrahydro-5H-imidazo[4,5-c]pyridin-5-yl)-5-(2-methylpyridin-3-yl)-1,3,4-oxadiazole] as the molecule, how does the AC50 read?
**A.** The AC50 was > 5 µM.

**Q.** How did the AC50 turn out when `CC(C)c1cccn2nc([C@@H]3c4nc[nH]c4CCN3c3nnc(-c4cccnc4F)o3)cc12` [Example 2335, (S)-2-(2-fluoropyridin-3-yl)-5-(4-(4-isopropylpyrazolo[1,5-a]pyridin-2-yl)-1,4,6,7-tetrahydro-5H-imidazo[4,5-c]pyridin-5-yl)-1,3,4-oxadiazole] was run?
**A.** Its AC50 is 0.5 to 1 µM.

**Q.** How did the AC50 turn out when `Cc1cccnc1-c1nnc(N2CCc3[nH]cnc3[C@H]2c2cc3cccc(C(F)(F)F)n3n2)o1` [Example 2336, (S)-2-(3-methylpyridin-2-yl)-5-(4-(7-(trifluoromethyl)pyrazolo[1,5-a]pyridin-2-yl)-1,4,6,7-tetrahydro-5H-imidazo[4,5-c]pyridin-5-yl)-1,3,4-oxadiazole] was run?
**A.** The AC50 was 0.5 to 1 µM.
